The text below walks through data of patent US8178506B2, “Oligomeric compounds and compositions for use in modulation of small non-coding RNAs” (Regulus Therapeutics Inc., priority 2003, dated 2012).

In the oligonucleotide strings, read from the 5' end, every base follows the letter of its sugar. An asterisk marks phosphorothioate; unmarked linkages are phosphodiester. Other units and linkages are bracketed, terminal groups are in braces. A string of capitals states the bases alone. e = 2'-O-(2-methoxyethyl) (MOE); [5mC] = 5-methylcytosine

The test system of one data set is Glut4. Description: Glut4 mRNA expression in adipocytes (real-time PCR). As to conditions: for GLUT4 mRNA: differentiating adipocytes transfected with oligomeric compound; for Glut4 (mRNA expression): adipocytes, 250 nM oligomeric compound, day nine post-transfection, relative to control (1.0). Format: cell-based, human.
The subject of the next data set is PPARγ. Description: PPARγ mRNA expression in adipocytes (real-time PCR). Format: cell-based, human. As to conditions: for PPAR gamma mRNA: differentiating adipocytes transfected with oligomeric compound; for PPAR gamma (mRNA expression): adipocytes, 250 nM oligomeric compound, day nine post-transfection, relative to control (1.0). For orientation: Real-time PCR tracks product formation cycle by cycle.

The next data set deals with aP2. Description: aP2 mRNA expression in adipocytes (real-time PCR). It is filed as cell-based, human. As to conditions: for aP2 mRNA / AP2 mRNA: differentiating adipocytes transfected with oligomeric compound; for aP2 mRNA: Table 75; for AP2 (mRNA expression): adipocytes, 250 nM oligomeric compound, day nine post-transfection, relative to control (1.0).
The test system of the next data set is adipocytes. Nature of the data set: Triglyceride accumulation assay in adipocytes. It is filed as cell-based, human.
The test system of the next data set is HuVECs. Nature of the data set: Endothelial tube formation assay in HuVECs. The settings on record: 75 nM oligomeric compound.
A further data set deals with HSL. Description: HSL mRNA expression in adipocytes (real-time PCR). It is filed as cell-based, human. As to conditions: for HSL mRNA: differentiating adipocytes transfected with oligomeric compound; for HSL (mRNA expression): adipocytes, 250 nM oligomeric compound, day nine post-transfection, relative to control (1.0).
The mark [1] stands for this setting: differentiating adipocytes transfected with oligomeric compound, Table 75.
[2] abbreviates: adipocytes, 250 nM oligomeric compound, relative to control (1.0), Table 15.
The mark [3] stands for this setting: adipocytes, 250 nM oligomeric compound, relative to control (1.0), Table 16.
Where [4] appears, read: differentiating adipocytes transfected with oligomeric compound.

For the substance “327886 (antisense e[5mC]*eG*e[5mC]*eG*eT*eA*e[5mC]*e[5mC]*eA*eA*eA*eA*eG*eT*eA*eA*eT*eA*eA*eT*eG) [compound 327886]”, in the data set with Glut4 (Table 75), the “GLUT4 mRNA” value is given as 13 percentage of untreated control (UTC). For the same substance, the “PPAR gamma mRNA” value in the data set on PPARγ (Table 75) was 25 percentage of untreated control (UTC). For the same substance, the “aP2 mRNA” value with aP2 is reported as 19 percentage of untreated control (UTC). The “TG (triglyceride accumulation)” value in the data set with adipocytes (setting [1]) is listed as 12 percentage of untreated control (UTC). Moreover, the “% Activity Relative to UTC (tube formation)” value (“% Activity Relative to UTC” below) with HuVECs (Table 56) worked out at 42.9%. Further, the “HSL mRNA” value in the data set on HSL (Table 75) is given as 22 percentage of untreated control (UTC).
As to “327923 (antisense eG*eA*eA*eA*eG*eA*eG*eA*e[5mC]*e[5mC]*eG*eG*eT*eT*e[5mC]*eA*e[5mC]*eT*eG*eT*eG*eA) [compound 327923]”, the “GLUT4 mRNA” value in the data set with Glut4 (Table 75) was 54 percentage of untreated control (UTC). For the same substance, in the data set on PPARγ (Table 75), the “PPAR gamma mRNA” value is on record as 77 percentage of untreated control (UTC). In the data set with aP2, the “aP2 mRNA” value is listed as 65 percentage of untreated control (UTC). In the data set on adipocytes (setting [1]), the “TG (triglyceride accumulation)” value is on record as 88 percentage of untreated control (UTC). Further, the “% Activity Relative to UTC” value in the data set on HuVECs (Table 57) is 48.3%. Moreover, the “HSL mRNA” value in the data set with HSL (Table 75) is listed as 64 percentage of untreated control (UTC).
In the case of “327889 (antisense eG*eT*eG*eG*eT*eA*eA*eT*e[5mC]*e[5mC]*e[5mC]*eT*eG*eG*e[5mC]*eA*eA*eT*eG*eT*eG*eA*eT) [compound 327889]”, the “Glut4 (mRNA expression)” value stood at 0.55 with Glut4 (Table 15) and 0.46 with Glut4 (Table 16). Also, the results for the “PPAR gamma (mRNA expression)” value in the data set with PPARγ (Table 15) and in the data set with PPARγ (Table 16) were 0.71 and 0.82, respectively. Besides, the “AP2 (mRNA expression)” value with aP2 (Table 15) stood at 0.69; in the data set with aP2 (Table 16) it was 0.57. Moreover, the figures for the “TG (triglyceride accumulation)” value in the data set with adipocytes (setting [2]) and with adipocytes (setting [3]) were 0.47 and 0.46, respectively. Also, the “% Activity Relative to UTC” value in the data set on HuVECs (Table 56) was 50.0%. Further, the “HSL (mRNA expression)” value with HSL (Table 15) amounted to 0.59; in the data set on HSL (Table 16) it was 0.54.
Consider “327925 (antisense eT*eA*eG*e[5mC]*eT*eG*eG*eT*eT*eG*eA*eA*eG*eG*eG*eG*eA*e[5mC]*e[5mC]*eA*eA) [compound 327925]”, for which the “Glut4 (mRNA expression)” value with Glut4 (Table 15) is 1.99; in the data set with Glut4 (Table 16), 0.61. For the same substance, the “PPAR gamma (mRNA expression)” value with PPARγ (Table 15) was 0.60; with PPARγ (Table 16) it was 0.83. Also, the “AP2 (mRNA expression)” value in the data set with aP2 (Table 15) and with aP2 (Table 16) was 0.77 throughout. The “TG (triglyceride accumulation)” value was found to be 0.72 with adipocytes (setting [2]) and 0.63 in the data set on adipocytes (setting [3]). The “% Activity Relative to UTC” value with HuVECs (Table 58) is 44.4%. Also, the “HSL (mRNA expression)” value with HSL (Table 15) turned out to be 0.78; with HSL (Table 16), 0.75.
Regarding “327892 (antisense eA*e[5mC]*eT*eT*eT*e[5mC]*eG*eG*eT*eT*eA*eT*e[5mC]*eT*eA*eG*e[5mC]*eT*eT*eT*eA) [compound 327892]”, the “Glut4 (mRNA expression)” value with Glut4 (Table 15) amounted to 0.07. Further, the “PPAR gamma (mRNA expression)” value in the data set on PPARγ (Table 15) is 0.32. The “AP2 (mRNA expression)” value with aP2 (Table 15) is 0.31. In addition, in the data set on adipocytes (setting [2]), the “TG (triglyceride accumulation)” value was found to be 0.42. Further, the “% Activity Relative to UTC” value in the data set on HuVECs (Table 56) is 57.1%. In addition, in the data set on HSL (Table 15), the “HSL (mRNA expression)” value is recorded as 0.25.
Consider “327931 (antisense eA*eA*e[5mC]*e[5mC]*eA*eT*eA*e[5mC]*eA*eA*e[5mC]*e[5mC]*eT*eA*e[5mC]*eT*eA*e[5mC]*e[5mC]*eT*e[5mC]*eA) [compound 327931]”, for which, in the data set with Glut4 (Table 16), the “Glut4 (mRNA expression)” value was 1.37. In addition, the “PPAR gamma (mRNA expression)” value with PPARγ (Table 16) came out at 1.56. Besides, the “AP2 (mRNA expression)” value with aP2 (Table 16) is 1.00. The “TG (triglyceride accumulation)” value with adipocytes (setting [3]) is 1.11. Besides, the “% Activity Relative to UTC” value in the data set with HuVECs (Table 58) amounted to 103.7%. Further, the “HSL (mRNA expression)” value in the data set with HSL (Table 16) was 0.99.
“327913 (antisense eA*eA*e[5mC]*e[5mC]*eG*eA*eT*eT*eT*e[5mC]*eA*eA*eA*eT*eG*eG*eT*eG*e[5mC]*eT*eA*eG) [compound 327913]”: in the data set on Glut4 (Table 15), the “Glut4 (mRNA expression)” value is recorded as 0.84. In the data set with PPARγ (Table 15), the “PPAR gamma (mRNA expression)” value amounted to 0.72. Also, the “AP2 (mRNA expression)” value in the data set with aP2 (Table 15) is on record as 0.99. For the same substance, the “TG (triglyceride accumulation)” value in the data set with adipocytes (setting [2]) was 0.59. Moreover, the “% Activity Relative to UTC” value in the data set on HuVECs (Table 57) is listed as 69.0%. For the same substance, the “HSL (mRNA expression)” value in the data set on HSL (Table 15) amounted to 0.92.
For “327904 (antisense eA*e[5mC]*eT*e[5mC]*eA*e[5mC]*e[5mC]*eG*eA*e[5mC]*eA*eG*e[5mC]*eG*eT*eT*eG*eA*eA*eT*eG*eT*eT) [compound 327904]”, the “GLUT4 mRNA” value in the data set with Glut4 is reported as 40 percentage of untreated control (UTC). Further, the “PPAR gamma mRNA” value in the data set with PPARγ was 54 percentage of untreated control (UTC). Besides, the “AP2 mRNA” value with aP2 was 65 percentage of untreated control (UTC). In addition, in the data set on adipocytes (setting [4]), the “TG (triglyceride accumulation)” value is 56 percentage of untreated control (UTC). In addition, the “% Activity Relative to UTC” value in the data set on HuVECs (Table 57) is recorded as 89.7%. Also, the “HSL mRNA” value with HSL is 42 percentage of untreated control (UTC).
Turning to “327893 (antisense eA*eA*e[5mC]*e[5mC]*eA*e[5mC]*eA*e[5mC]*eA*eA*e[5mC]*e[5mC]*eT*eA*e[5mC]*eT*eA*e[5mC]*e[5mC]*eT*e[5mC]*eA) [compound 327893]”, the “Glut4 (mRNA expression)” value with Glut4 (Table 16) is 1.47. The “PPAR gamma (mRNA expression)” value in the data set on PPARγ (Table 16) was 1.03. The “AP2 (mRNA expression)” value in the data set with aP2 (Table 16) is given as 0.97. In addition, the “TG (triglyceride accumulation)” value in the data set on adipocytes (setting [3]) was 0.95. The “% Activity Relative to UTC” value in the data set on HuVECs (Table 56) is 100.0%. In addition, the “HSL (mRNA expression)” value in the data set on HSL (Table 16) is listed as 0.85.
For the substance “327951 (antisense e[5mC]*eA*e[5mC]*eA*eA*eA*e[5mC]*e[5mC]*eA*eT*eT*eA*eT*eG*eT*eG*e[5mC]*eT*eG*e[5mC]*eT*eA) [compound 327951]”, the “GLUT4 mRNA” value in the data set on Glut4 is listed as 81 percentage of untreated control (UTC). Further, in the data set with PPARγ, the “PPAR gamma mRNA” value is 84 percentage of untreated control (UTC). For the same substance, the “AP2 mRNA” value in the data set with aP2 is reported as 91 percentage of untreated control (UTC). Also, the “TG (triglyceride accumulation)” value with adipocytes (setting [4]) is reported as 76 percentage of untreated control (UTC). The “% Activity Relative to UTC” value with HuVECs (Table 59) turned out to be 73.3%. For the same substance, the “HSL mRNA” value in the data set on HSL was 100 percentage of untreated control (UTC).
